Source: patent US8791132B2, “Compounds and methods for treatment of hypertension” (Medivation Technologies, Inc., priority 2011, dated 2014)
pKi: −log10 of the molar value.

What was measured:
[1] = target: T1, rat adrenergic α1B receptor (Rattus norvegicus, UniProt P15823); assay: Radioligand binding, adrenergic α1B ([3H]Prazosin); conditions: [3H]Prazosin, repeat assays, each datapoint shown; for inhibition at 0.1 µM / Percentage inhibition of ligand binding, Adrenergic α1B: compound at 0.1 μM; for inhibition at 0.1 µM / inhibition at 0.03 µM: read-out: Percentage inhibition of ligand binding, Adrenergic α1B; for Percentage inhibition of ligand binding, Adrenergic α1B: 0.1 µM; for inhibition at 0.03 µM: compound at 0.03 μM
T1 construct: rat adrenergic α1B receptor obtained from Wistar Rat liver; from tissue; host or cells: Wistar rat liver
T1 sequence (P15823 1-515): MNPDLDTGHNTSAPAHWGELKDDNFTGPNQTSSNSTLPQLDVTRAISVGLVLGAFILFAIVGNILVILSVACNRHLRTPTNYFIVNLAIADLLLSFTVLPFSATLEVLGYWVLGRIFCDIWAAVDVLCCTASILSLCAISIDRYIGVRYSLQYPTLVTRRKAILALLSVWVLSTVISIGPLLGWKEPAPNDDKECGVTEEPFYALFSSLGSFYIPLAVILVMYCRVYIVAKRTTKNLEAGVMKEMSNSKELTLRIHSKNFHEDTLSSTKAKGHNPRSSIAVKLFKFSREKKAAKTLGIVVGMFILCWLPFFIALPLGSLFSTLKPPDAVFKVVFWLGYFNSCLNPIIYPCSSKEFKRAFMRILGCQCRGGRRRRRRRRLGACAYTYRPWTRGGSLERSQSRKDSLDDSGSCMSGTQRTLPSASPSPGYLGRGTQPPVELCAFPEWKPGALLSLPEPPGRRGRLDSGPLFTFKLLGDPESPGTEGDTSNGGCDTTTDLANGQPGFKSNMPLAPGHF
Description: To evaluate in radioligand binding assays the activity of compounds of the invention, rat adrenergic α1B receptor obtained from Wistar Rat liver (Garcia-S'ainz, J. et al, Biochem. Biophys. Res. Commun. 186:760, 1992; Michel, A. et al, Br. J. Pharmacol. 98:883, 1989) in a modified Tris-HCl buffer (50 mM Tris-HCl buffer, pH 7.4, 0.5 mM EDTA) was used. Compounds of the invention were incubated with 0.25 nM [^3H]Prazosin for 60 min at 25° C. Non-specific binding was estimated in the presence of 10 μM phentolamine. Receptor proteins were filtered and washed, the filters were then counted to determine [^3H]Prazosin specifically bound. […] Compounds of the invention were tested in this biochemical assay and percent inhibition of specific binding was determined. Biochemical assay results are presented as the percent inhibition of specific binding in Table B1.

[2] = target: T2, human recombinant adrenergic α2A receptor (Homo sapiens, UniProt P08913); assay: Radioligand binding, adrenergic α2A ([3H]MK-912); conditions: for Percentage inhibition of ligand binding, Adrenergic α2A / inhibition at 0.1 µM: compound at 0.1 μM, [3H]MK-912, repeat assays, each datapoint shown; for inhibition at 0.1 µM: read-out: Percentage inhibition of ligand binding, Adrenergic α2A
T2 construct: expressed in transfected cells; host or cells: insect Sf9 cells
T2 sequence (P08913 1-465): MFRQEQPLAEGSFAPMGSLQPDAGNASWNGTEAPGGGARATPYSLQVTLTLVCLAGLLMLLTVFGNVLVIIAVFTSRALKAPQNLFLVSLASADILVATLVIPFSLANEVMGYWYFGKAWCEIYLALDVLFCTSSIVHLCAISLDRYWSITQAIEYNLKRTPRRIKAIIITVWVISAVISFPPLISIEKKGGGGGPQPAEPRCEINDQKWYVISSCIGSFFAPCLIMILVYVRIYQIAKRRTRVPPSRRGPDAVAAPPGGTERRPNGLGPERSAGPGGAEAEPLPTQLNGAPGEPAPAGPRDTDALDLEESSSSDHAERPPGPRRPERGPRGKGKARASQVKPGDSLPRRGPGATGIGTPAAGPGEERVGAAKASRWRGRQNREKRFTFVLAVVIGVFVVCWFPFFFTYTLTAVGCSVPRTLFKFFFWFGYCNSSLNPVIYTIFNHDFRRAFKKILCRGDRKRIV
How it was run: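 Sf9-expressed receptor was incubated with compound for 60 min at 25 °C in modified Tris-HCl buffer, pH 7.4. Nonspecific binding was taken as that remaining with 10 μM WB-4101.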

[3] = target: T3, human recombinant adrenergic α2B receptor (Homo sapiens, UniProt P18089); assay: Radioligand binding, adrenergic α2B ([3H]Rauwolscine); conditions: for Percentage inhibition of ligand binding, Adrenergic α2B / inhibition at 0.03 µM: compound at 0.03 μM, [3H]Rauwolscine, repeat assays, each datapoint shown; for Percentage inhibition of ligand binding, Adrenergic α2B: 0.03 µM; for inhibition at 0.03 µM: read-out: Percentage inhibition of ligand binding, Adrenergic α2B; for pKi: read-out: Ki α2B
T3 construct: expressed in transfected cells; host or cells: CHO-K1
T3 sequence (P18089 1-450): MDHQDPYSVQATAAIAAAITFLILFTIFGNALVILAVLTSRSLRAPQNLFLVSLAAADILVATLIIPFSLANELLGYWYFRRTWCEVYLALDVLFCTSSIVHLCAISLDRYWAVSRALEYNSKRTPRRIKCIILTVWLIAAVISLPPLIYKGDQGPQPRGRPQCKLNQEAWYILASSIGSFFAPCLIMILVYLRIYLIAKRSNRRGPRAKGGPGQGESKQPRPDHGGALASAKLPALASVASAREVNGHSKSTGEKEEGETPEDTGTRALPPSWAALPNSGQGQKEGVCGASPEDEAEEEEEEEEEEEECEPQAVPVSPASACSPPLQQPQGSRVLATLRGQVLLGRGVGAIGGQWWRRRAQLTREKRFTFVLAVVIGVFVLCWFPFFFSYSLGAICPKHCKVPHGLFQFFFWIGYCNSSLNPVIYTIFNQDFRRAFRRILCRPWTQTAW
How it was run: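 Readout: percent inhibition of specific [3H]Rauwolscine binding, measured by filtration and counting. Conditions: CHO-K1 cell-expressed receptor, 2.5 nM radioligand, 60 min, 25° C, Tris-HCl pH 7.4 buffer with MgCl2, EDTA, BSA. Non-specific binding: 10 μM Prazosin.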

CC(C)(O)CCN1CCc2c(c3cc(Cl)ccc3n2CC(O)c2ccncc2)C1 (single isomer, unassigned) [11a, 4-[8-chloro-5-(2-hydroxy-2-pyridin-4-yl-ethyl)-1,3,4,5-tetrahydro-pyrido[4,3-b]indol-2-yl]-2-methyl-butan-2-ol]
inhibition at 0.1 µM [1]: 16% | Percentage inhibition of ligand binding, Adrenergic α2A ([2]; 0.1 µM): −6% | Percentage inhibition of ligand binding, Adrenergic α2B [3]: 28%

CC(C)(O)CCN1CCc2c(c3cc(Cl)ccc3n2CC(O)c2ccncc2)C1 (single isomer, unassigned) [11b, 4-[8-chloro-5-(2-hydroxy-2-pyridin-4-yl-ethyl)-1,3,4,5-tetrahydro-pyrido[4,3-b]indol-2-yl]-2-methyl-butan-2-ol]
Percentage inhibition of ligand binding, Adrenergic α1B [1]: 18% | Percentage inhibition of ligand binding, Adrenergic α2A ([2]; 0.1 µM): 13% | Percentage inhibition of ligand binding, Adrenergic α2B [3]: 64%

CC(O)(Cn1c2c(c3cc(Cl)cnc31)CNCC2)c1ccncc1 (single isomer, unassigned) [12a, 1-(3-chloro-5,6,7,8-tetrahydro-1,6,9-triaza-fluoren-9-yl)-2-pyridin-4-yl-propan-2-ol]
Percentage inhibition of ligand binding, Adrenergic α1B [1]: 23% | inhibition at 0.1 µM [2]: 3% | inhibition at 0.03 µM [3]: 24%

CC(O)(Cn1c2c(c3cc(Cl)cnc31)CNCC2)c1ccncc1 (single isomer, unassigned) [12b, 1-(3-chloro-5,6,7,8-tetrahydro-1,6,9-triaza-fluoren-9-yl)-2-pyridin-4-yl-propan-2-ol]
Percentage inhibition of ligand binding, Adrenergic α1B [1]: 8% | Percentage inhibition of ligand binding, Adrenergic α2A [2]: 3% | Percentage inhibition of ligand binding, Adrenergic α2B [3]: 21%

Cc1ccc2c(c1)c1c(n2CC(O)c2ccncc2)CCN(C)CC1 (single isomer, unassigned) [13a, 2-(3,9-dimethyl-2,3,4,5-tetrahydroazepino[4,5-b]indol-6(1H)-yl)-1-(pyridin-4-yl)ethanol]
Percentage inhibition of ligand binding, Adrenergic α1B [1]: 75% | Percentage inhibition of ligand binding, Adrenergic α2A ([2]; 0.1 µM): −2% | Percentage inhibition of ligand binding, Adrenergic α2B [3]: 37%

Cc1ccc2c(c1)c1c(n2CC(C)(O)c2cccnc2)CN(C)CC1 (single isomer, unassigned) [14a, 1-(2,6-dimethyl-1,2,3,4-tetrahydro-β-carbolin-9-yl)-2-pyridin-3-yl-propan-2-ol]
inhibition at 0.03 µM [1]: 17% | Percentage inhibition of ligand binding, Adrenergic α1B [1]: 44% | inhibition at 0.1 µM [1]: 43% | pKi [2]: 6.91 | Percentage inhibition of ligand binding, Adrenergic α2B [3]: 98% | inhibition at 0.03 µM [3]: 97% | pKi [3]: 8.72

CN1CCc2c(n(CC(O)c3ccncc3)c3ccc(Cl)cc23)CC1 (single isomer, unassigned) [15a, 2-(9-chloro-3-methyl-2,3,4,5-tetrahydroazepino[4,5-b]indol-6(1H)-yl)-1-(pyridin-4-yl)ethanol]
Percentage inhibition of ligand binding, Adrenergic α1B [1]: 81% | Percentage inhibition of ligand binding, Adrenergic α2A ([2]; 0.1 µM): 6% | Percentage inhibition of ligand binding, Adrenergic α2B [3]: 65%

CN1CCc2c(n(CC(O)c3ccncc3)c3ccc(Cl)cc23)CC1 (single isomer, unassigned) [15b, 2-(9-chloro-3-methyl-2,3,4,5-tetrahydroazepino[4,5-b]indol-6(1H)-yl)-1-(pyridin-4-yl)ethanol]
inhibition at 0.03 µM [1]: 73% | Percentage inhibition of ligand binding, Adrenergic α1B [1]: 93% | inhibition at 0.1 µM [1]: 89% | pKi [2]: 6.95 | Percentage inhibition of ligand binding, Adrenergic α2A ([2]; 0.1 µM): 24% | inhibition at 0.1 µM [2]: 21% | inhibition at 0.03 µM [3]: 103% | pKi [3]: 9.19

Cc1ccc2c(c1)c1c(n2CC(C)(O)c2ccccn2)CN(C)CC1 (single isomer, unassigned) [16a, 1-(2,6-dimethyl-1,2,3,4-tetrahydro-β-carbolin-9-yl)-2-pyridin-2-yl-propan-2-ol]
Percentage inhibition of ligand binding, Adrenergic α1B [1]: 47% | Percentage inhibition of ligand binding, Adrenergic α2A ([2]; 0.1 µM): 9% | Percentage inhibition of ligand binding, Adrenergic α2B [3]: 33%

Cc1ccc2c(c1)c1c(n2CC(C)(O)c2ccccn2)CN(C)CC1 (single isomer, unassigned) [16b, 1-(2,6-dimethyl-1,2,3,4-tetrahydro-β-carbolin-9-yl)-2-pyridin-2-yl-propan-2-ol]
Percentage inhibition of ligand binding, Adrenergic α1B [1]: 16% | Percentage inhibition of ligand binding, Adrenergic α2A ([2]; 0.1 µM): 2% | Percentage inhibition of ligand binding, Adrenergic α2B [3]: 2%

CN1Cc2c(n(CC(O)c3ccncc3)c3ncccc23)C(C)(C)C1 (single isomer, unassigned) [17a, 1-pyridin-4-yl-2-(6,8,8-trimethyl-5,6,7,8-tetrahydro-1,6,9-triaza-fluoren-9-yl)-ethanol]
Percentage inhibition of ligand binding, Adrenergic α1B [1]: 13% | Percentage inhibition of ligand binding, Adrenergic α2A ([2]; 0.1 µM): 19% | Percentage inhibition of ligand binding, Adrenergic α2B [3]: 32%

CN1Cc2c(n(CC(O)c3ccncc3)c3ncccc23)C(C)(C)C1 (single isomer, unassigned) [17b, 1-pyridin-4-yl-2-(6,8,8-trimethyl-5,6,7,8-tetrahydro-1,6,9-triaza-fluoren-9-yl)-ethanol]
Percentage inhibition of ligand binding, Adrenergic α1B [1]: 16% | Percentage inhibition of ligand binding, Adrenergic α2A ([2]; 0.1 µM): 9% | Percentage inhibition of ligand binding, Adrenergic α2B [3]: 20%

Cc1ccc2c(c1)c1c(n2CC(O)c2ccc(F)cc2)CN(C)CC1 (single isomer, unassigned) [18a, 2-(2,6-dimethyl-1,2,3,4-tetrahydro-β-carbolin-9-yl)-1-(4-fluoro-phenyl)-ethanol]
Percentage inhibition of ligand binding, Adrenergic α1B [1]: 55% | inhibition at 0.1 µM [2]: 50% | inhibition at 0.03 µM [3]: 54%

Cc1ccc2c(c1)c1c(n2CC(O)c2ccc(F)cc2)CN(C)CC1 (single isomer, unassigned) [18b, 2-(2,6-dimethyl-1,2,3,4-tetrahydro-β-carbolin-9-yl)-1-(4-fluoro-phenyl)-ethanol]
Percentage inhibition of ligand binding, Adrenergic α1B [1]: 87% | Percentage inhibition of ligand binding, Adrenergic α2A ([2]; 0.1 µM): 32% | Percentage inhibition of ligand binding, Adrenergic α2B [3]: 61%

Cc1ccc2c(c1)c1c(n2CC(C)(O)c2ccncc2)CN(C)CC1 (single isomer, unassigned) [19a, 1-(2,6-dimethyl-1,2,3,4-tetrahydro-β-carbolin-9-yl)-2-pyridin-4-yl-propan-2-ol]
inhibition at 0.1 µM [1]: 75% | Percentage inhibition of ligand binding, Adrenergic α2A ([2]; 0.1 µM): 21% | Percentage inhibition of ligand binding, Adrenergic α2B [3]: 75%
